Test results published in patent US7018824B2, “Mannosyl transfer with regeneration of GDP-mannose” (The Scripps Research Institute, priority 1993, dated 2006).
Read-outs that look alike come from different tables or passages of the source. Values belong to the molecule of their own block, whether it stands above or below them. Peptide text beside a SMILES is read from it. * marks the point of attachment. X1 = OCC1OC(*)C(O)C(O)C1O; Cbz = O=C(OCc1ccccc1)*

Experiments:
[1] = target: T1, Recombinant α1,2-Mannosyltransferase (Saccharomyces cerevisiae, UniProt P27809); assay: Substrate specificity and enzyme kinetics of the mannosyltransfer reaction (GDP-Man + acceptor); assay type: biochemical; settings: for substrate (acceptor) quality in words: 150 mM substrate, 3.3 mM GDP-Man; for Vrelative: calculated as the ratio of Vmax, ManαOMe = 1.0
T1 construct: made in house; host or cells: E. coli XL1-Blue, periplasmic fraction
T1 sequence (P27809 31-442): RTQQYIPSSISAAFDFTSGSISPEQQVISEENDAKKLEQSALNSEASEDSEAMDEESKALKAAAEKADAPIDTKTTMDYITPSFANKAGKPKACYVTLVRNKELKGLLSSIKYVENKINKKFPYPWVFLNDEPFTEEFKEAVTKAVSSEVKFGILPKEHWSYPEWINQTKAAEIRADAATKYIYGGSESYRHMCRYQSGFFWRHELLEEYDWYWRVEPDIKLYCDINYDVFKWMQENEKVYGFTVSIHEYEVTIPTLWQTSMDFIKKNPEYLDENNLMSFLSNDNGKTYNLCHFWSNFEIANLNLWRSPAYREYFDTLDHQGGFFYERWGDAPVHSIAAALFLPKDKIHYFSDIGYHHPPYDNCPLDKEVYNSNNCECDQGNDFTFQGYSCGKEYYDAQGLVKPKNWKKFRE
Method: GDP-Man (^14C) (10 mM, 10 mL), α-methyl mannopyranoside (500 mM, 10 μL) and the enzyme solution (10 μL) were mixed in a buffer containing 50 mM HEPES (pH 7.2), 0.1 percent Triton and 10 mM MnCl2. The mixture was incubated at 30.0° C. for one hour. The unreacted GDP-mannose was removed by adding QAE-Sephadex (400 μL) to the solution. After the resin was removed by centrifugation, the radioactivity of the solution was counted in 10 mL of scintillation fluid. Controls were carried out by omitting the acceptor or the enzyme. The substrate specificity was determined in a 30 μL assay solution containing 150 mM substrate, 3.3 mM GDP-Man, overproduced α1,2-ManT, 50 mM HEPES (pH 7.2), 0.1 percent Triton and 10 mM MnCl2. The mixture was incubated at 30° C. for 1 hour and the formation of product was determined by the radioactivity assay. Initial velocities were measured as described in the enzyme assay at various concentrations of acceptors for kinetic studies. From the Lineweaver-Burk plots of the data, Km and Vmax were determined.

[2] = test system: native α1,2-mannosyltransferase; settings: native enzyme, literature value for comparison; cited from earlier work
Enzyme stability study = assay type: physicochemical; settings: after four days at 20° C. in 100 mM Tris-HCl, 5 mM MgCl2 buffer, pH 7.4
Method: The enzyme was incubated at room temperature in 100 mM Tris-HCl buffer, 5 mM MgCl2, pH 7.4, containing 0.5 mM dithiothreitol. At different time intervals, 10 μL aliquots were taken and assayed for mannosyltransferase activity as described above.

[3] = Organic solvent effect study on the mannosyltransfer reaction; assay type: biochemical
Method: GDP-Man (^14C) (10 mM, 10 μL) and methyl mannopyranoside (500 mM, 10 μL) were mixed with a certain volume of an organic solvent and H2O to achieve the desired organic solvent concentration. The enzyme (10 μL) was then added to the mixture. The solution was incubated at 30.0° C. for 1 hour. The enzyme activity was measured as described in the enzyme assay section.

[4] = α1,2-Mannosyltransferase activity assay; assay type: biochemical; settings: after Superose and Mono Q FPLC purification; one unit transfers 1.0 μmol mannose per minute at 30° C.
Method: GDP-Man (^14C) (10 mM, 10 mL), α-methyl mannopyranoside (500 mM, 10 μL) and the enzyme solution (10 μL) were mixed in a buffer containing 50 mM HEPES (pH 7.2), 0.1 percent Triton and 10 mM MnCl2. The mixture was incubated at 30.0° C. for one hour. The unreacted GDP-mannose was removed by adding QAE-Sephadex (400 μL) to the solution. After the resin was removed by centrifugation, the radioactivity of the solution was counted in 10 mL of scintillation fluid. Controls were carried out by omitting the acceptor or the enzyme.

[5] = acceptor substrate of recombinant enzyme, read-out: Km value
[6] = acceptor with GDP-Man, Lineweaver-Burk plots, 30° C., pH 7.2, read-out: Km (acceptor)

Molecule: OC[C@H]1NC[C@@H](O)[C@@H](O)[C@@H]1O [1-deoxymannojirimycin, reference compound]
inhibitor of α1,2-ManT in words ([1]; recombinant α1,2-ManT): nor an inhibitor
substrate (acceptor) quality in words ([1]; recombinant α1,2-ManT): neither a substrate

Molecule: CO[C@H]1O[C@H](CO)[C@@H](O)[C@H](O)[C@@H]1O [Compound 1, α-methylmannopyranoside, reference compound]
Km [1, 5]: 57 mM
Km [1, 6]: 57 mM
Vrelative ([1]; acceptor with GDP-Man): 1.0

Molecule: O=C[C@@H](O)[C@@H](O)[C@H](O)[C@H](O)CO [Compound 2, mannose]
Km (acceptor) ([1]; acceptor with GDP-Man, Lineweaver-Burk plots, 30° C., pH 7.2): 193 mMO
Vrelative ([1]; acceptor with GDP-Man): 0.46
Km [2]: 100 mM

Molecule: CO[C@H]1O[C@H](CO)[C@@H](O)[C@H](O)[C@@H]1O[C@H]1O[C@H](CO)[C@@H](O)[C@H](O)[C@@H]1O [Compound 3, Manα1,2ManαOMe]
Km [1, 5]: 28 mM
Km [1, 6]: 28 mM
Vrelative ([1]; acceptor with GDP-Man): 0.62

Molecule: CO[C@H]1O[C@H](C)[C@@H](O)[C@H](O)[C@@H]1O [Compound 4, Methyl 6-Deoxy-α-D-mannopyranoside]
Vrelative ([1]; acceptor with GDP-Man): 0.06
substrate (acceptor) quality in words ([1]; recombinant α1,2-ManT): poor substrates

Molecule: CO[C@H]1O[C@H](CN=[N+]=[N-])[C@@H](O)[C@H](O)[C@@H]1O [Compound 5, 6-Azido-6-deoxy-ManαOMe]
Vrelative ([1]; acceptor with GDP-Man): 0.02
substrate (acceptor) quality in words ([1]; recombinant α1,2-ManT): poor substrates

Molecule: CO[C@H]1O[C@H](CN)[C@@H](O)[C@H](O)[C@@H]1O [Compound 6, 6-Amino-6-deoxy-ManαOMe]
Vrelative ([1]; acceptor with GDP-Man): 0.07
substrate (acceptor) quality in words ([1]; recombinant α1,2-ManT): poor substrates

Molecule: COC(=O)C(NC(=O)C(N)C(C)OC1OC(CO)C(O)C(O)C1O)C(C)C (stereo not drawn) [Compound 8, Thr(α-Man)-Val-OMe]
Vrelative ([1]; acceptor with GDP-Man): 0.68
substrate (acceptor) quality in words ([1]; recombinant α1,2-ManT): good substrates

Molecule: CC(NC(=O)CNC(=O)C(NC(=O)C(NC(=O)OCc1ccccc1)C(C)OC1OC(CO)C(O)C(O)C1O)C(C)C)C(N)=O (stereo not drawn) [Compound 9, Cbz-Thr(α-Man)-Val-Gly-Ala-NH2] (Cbz-T(X1)VGA-NH2; configuration not given here)
Vrelative ([1]; acceptor with GDP-Man): 0.55
substrate (acceptor) quality in words ([1]; recombinant α1,2-ManT): good substrates

Molecule: Cbz-Thr(α-Man)-Val-OMe [Compound 7]
Km [1, 6]: 7.8 mM
Vrelative ([1]; acceptor with GDP-Man): 0.71
substrate (acceptor) quality in words ([1]; recombinant α1,2-ManT): comparable with ManαOMe as an acceptor

B1: recombinant α1,2-ManT: water-dispersible recombinant α1,2-mannosyltransferase catalytic domain, residues about 31-442 of the S. cerevisiae enzyme, expressed in E. coli (protein)
chain: T1 sequence (P27809 31-442)
activity retained (Enzyme stability study): more than 90%
remaining activity ([3]; 10-percent DMF-buffer solution): about 80%
remaining activity ([3]; 10 percent acetonitrile-buffer solution): about 50%
loss of activity ([3]; DMF or acetonitrile increased to 20 percent): 95%
tolerated acetone concentration ([3]; acetone-buffer solution): ≤ 20%
tolerated methanol concentration ([3]; methanol-buffer solution): up to 30%
specific activity [4]: about 1 unit/mg

More lines, now with the values ahead:

Km [1, 6]: 26 mM
Vrelative ([1]; acceptor with GDP-Man): 0.17
Molecule: COC(=O)C(NC(=O)C(NC(=O)OCc1ccccc1)C(C)OC1OC(CO)C(O)C(O)C1OC1OC(CO)C(O)C(O)C1O)C(C)C (stereo not shown) [Compound 11, Cbz-Thr(αManα1,2Man)-Val-OMe]

Vrelative ([1]; acceptor with GDP-Man): 0.00
Molecule: CO[C@H]1O[C@H](COS(=O)(=O)c2ccc(C)cc2)[C@@H](O)[C@H](O)[C@@H]1O [Compound 12, 6-Tosyl-ManαOMe]

Vrelative ([1]; acceptor with GDP-Man): 0.00
substrate (acceptor) quality in words ([1]; recombinant α1,2-ManT): not substrates
Molecule: O=[N+]([O-])c1ccc(O[C@H]2O[C@H](CO)[C@@H](O)[C@H](O)[C@@H]2O)cc1 [Compound 13, p-nitrophenyl α-mannopyranoside, reference compound]

substrate (acceptor) quality in words ([1]; recombinant α1,2-ManT): not substrates
Molecule: O=C[C@@H](O)[C@H](O)[C@H](O)[C@H](O)CO [D-altrose, reference compound]

substrate (acceptor) quality in words ([1]; recombinant α1,2-ManT): not substrates
Molecule: O=C[C@@H](O)[C@H](O)[C@H](O)CO [D-arabinose, reference compound]

substrate (acceptor) quality in words ([1]; recombinant α1,2-ManT): not substrates
Molecule: O=C[C@@H](O)[C@H](O)[C@@H](O)[C@H](O)CO [D-idose, reference compound]

substrate (acceptor) quality in words ([1]; recombinant α1,2-ManT): not substrates
Molecule: O=C[C@@H](O)[C@@H](O)[C@H](O)CO [D-lyxose, reference compound]

substrate (acceptor) quality in words ([1]; recombinant α1,2-ManT): not substrates
Molecule: O=C[C@@H](O)[C@@H](O)[C@@H](O)[C@H](O)CO [D-talose, reference compound]

Km [1, 5]: 0.7 mM
Km [1, 6]: 0.7 mM
Vrelative ([1]; acceptor with GDP-Man): 0.35
Km, times less than that of Compound 7 ([1]; ratio of Km values): 10 times
Km, times smaller than that of ManαOMe (Compound 1) ([1]; ratio of Km values): 80 times
Molecule: Boc-Try-Thr(α-Man)-Val-OMe [Compound 10]
